From patent US9204639B2, “Pesticide preparation and process for producing the same” (BAYER INTELLECTUAL PROPERTY GMBH, priority 2011, dated 2015)
In brackets after ≈: the same amount, converted by molar mass. Each block holds one molecule with its values, some of them ahead of it.

Assays:
[1] = type: physicochemical
Procedure: To 31.0 g of tefuryltrione and 11.5 g of diphenylamine (equivalent mol to tefuryltrione), 10 mL of toluene was added and refluxed under heating at 90° C. for 1 hour. […] The melting point of the obtained compound was measured using a DSC (Differential Scanning calorimetry) and compared with those of the starting materials (Table 1).
The solubilities of the pesticide active ingredients in toluene and a toluene/isooctane mixture liquid (80/20, v/v) at room temperature were determined (Table 2).

[2] = cited from earlier work

- Solubility, Toluene [1]: 97.8 mg/mL (≈ 221 mM)
- Solubility, Toluene/isooctane mixture liquid (80/20, v/v) [1]: 49.4 mg/mL (≈ 112 mM)
SMILES: CS(=O)(=O)c1ccc(C(=O)C2C(=O)CCCC2=O)c(Cl)c1COCC1CCCO1 (stereo not shown) [Tefuryltrione, tefuryltrione]

SMILES: c1ccc(-c2ccccc2)cc1 [biphenyl]
- Water solubility [2]: 7 ppm

SMILES: c1ccc(C(c2ccccc2)c2ccccc2)cc1 [triphenylmethane]
- Water solubility (in words) [2]: water insoluble
